Source: patent US9884832B2 (priority 2011, dated 2018)
Where two headings read alike, the source gives them in different places.

What was measured:
[1] = target: AM2 V27A (valine→alanine mutation at residue 27 in the M2 protein) (Influenza A virus, UniProt P0DOF5, V27A); assay type: cell-based, influenza virus A/Udorn/72
[2] = target: AM2 S31N (serine→asparagine mutation at residue 31 in the M2 protein) (Influenza A virus, UniProt P0DOF5, S31N); assay type: cell-based, influenza virus A/Udorn/72

SMILES	S31N OOcyte Inhibition at 100 uM (%) ([2]; pH 5.5)	S31N OOcyte Inhibition at 100 uM (%) [2]	other results
NC(=O)c1ccc(CNC23CC4CC(CC(C4)C2)C3)cc1 [Example 18, 4-(Adamantan-1-ylaminomethyl)-benzamide]	B (key: (A)=31-95%; (B)=0-30%)		V27A OOcyte Inhibition at 100 uM (%) ([1]; pH 5.5): B (key: (A)=31-95%; (B)=0-30%)
OCc1ccc(CNC23CC4CC(CC(C4)C2)C3)o1 [Example 77, [5-(Adamantan-1-ylaminomethyl)-furan-2-yl]methanol]	B (key: (A)=31-95%; (B)=0-30%)		V27A OOcyte Inhibition at 100 uM (%) ([1]; pH 5.5): B (key: (A)=31-95%; (B)=0-30%)
COc1ccc(-c2nnc(CNC34CC5CC(CC(C5)C3)C4)o2)cc1 [Example 127a, N-((5-(4-methoxyphenyl)-1,3,4-oxadiazol-2-yl)methyl)adamantan-1-amine]		A (key: (A)=31-95%; (B)=0-30%)	V27A OOcyte Inhibition at 100 uM (%) [1]: B (key: (A)=31-95%; (B)=0-30%)
CC(C)(C)c1cc(CNC23CC4CC(CC(C4)C2)C3)[nH]n1 [Example 101a, N-((3-(tert-butyl)-1H-pyrazol-5-yl)methyl)adamantan-1-amine]		B (key: (A)=31-95%; (B)=0-30%)	V27A OOcyte Inhibition at 100 uM (%) [1]: B (key: (A)=31-95%; (B)=0-30%)
Oc1ccc(CNC23CC4CC(CC(C4)C2)C3)c(Cl)c1 [Example 58, 4-(Adamantan-1-ylaminomethyl)-3-chloro-phenol]	B (key: (A)=31-95%; (B)=0-30%)		V27A OOcyte Inhibition at 100 uM (%) ([1]; pH 5.5): A (key: (A)=31-95%; (B)=0-30%)
O=[N+]([O-])c1ccc(CNC23CC4CC(CC(C4)C2)C3)cc1 [Example 19, Adamantan-1-yl-(4-nitro-benzyl)-amine]	B (key: (A)=31-95%; (B)=0-30%)		V27A OOcyte Inhibition at 100 uM (%) ([1]; pH 5.5): B (key: (A)=31-95%; (B)=0-30%)
OCc1cc(Br)ccc1CNC12CC3CC(CC(C3)C1)C2 [Example 52a, [2-(Adamantan-1-ylaminomethyl)-5-bromo-phenyl]methanol]		B (key: (A)=31-95%; (B)=0-30%)	V27A OOcyte Inhibition at 100 uM (%) [1]: B (key: (A)=31-95%; (B)=0-30%)
CC(C)(C)C1CCC(NCc2ccc(O)cc2O)CC1 (stereo not shown) [Example 109, 4-[(4-tert-Butyl-cyclohexylamino)-methyl]-benzene-1,3-diol]	B (key: (A)=31-95%; (B)=0-30%)		V27A OOcyte Inhibition at 100 uM (%) ([1]; pH 5.5): A (key: (A)=31-95%; (B)=0-30%)
Oc1ccc(/C=N/C23CC4CC(CC(C4)C2)C3)cc1 [Example 6]	B (key: (A)=31-95%; (B)=0-30%)		V27A OOcyte Inhibition at 100 uM (%) ([1]; pH 5.5): B (key: (A)=31-95%; (B)=0-30%)
c1ccc2nc(CNC34CC5CC(CC(C5)C3)C4)ccc2c1 [Example 98, Adamantan-1-yl-quinolin-2-ylmethyl-amine]	A (key: (A)=31-95%; (B)=0-30%)		V27A OOcyte Inhibition at 100 uM (%) ([1]; pH 5.5): B (key: (A)=31-95%; (B)=0-30%)
c1ccc2sc(CNC34CC5CC(CC(C5)C3)C4)nc2c1 [Example 91, Adamantan-1-yl-benzothiazol-2-ylmethyl-amine]	A (key: (A)=31-95%; (B)=0-30%)		V27A OOcyte Inhibition at 100 uM (%) ([1]; pH 5.5): B (key: (A)=31-95%; (B)=0-30%)
C[Si](C)(C)c1ccc(CNC23CC4CC(CC(C4)C2)C3)cc1 [Example 6a, Adamantan-1-yl-(4-trimethylsilanyl-benzyl)-amine]		A (key: (A)=31-95%; (B)=0-30%)	V27A OOcyte Inhibition at 100 uM (%) [1]: B (key: (A)=31-95%; (B)=0-30%)
COC(=O)C(Cc1cnc[nH]1)NCC12CC3CC(CC(C3)C1)C2 (stereo not shown) [Example 3, 2-[(Adamantan-1-ylmethyl)-amino]-3-(3H-imidazol-4-yl)-propionic acid methyl ester]	B (key: (A)=31-95%; (B)=0-30%)		V27A OOcyte Inhibition at 100 uM (%) ([1]; pH 5.5): B (key: (A)=31-95%; (B)=0-30%)
CN(CCC#N)c1ccc(CNC23CC4CC(CC(C4)C2)C3)cc1 [Example 38, 3-((4-((Adamantan-1-ylamino)methyl)phenyl)(methyl)amino)propanenitrile]	A (key: (A)=31-95%; (B)=0-30%)		V27A OOcyte Inhibition at 100 uM (%) ([1]; pH 5.5): B (key: (A)=31-95%; (B)=0-30%)
Oc1cccc(CNC23CC4CC(CC(C4)C2)C3)c1 [Example 31, 3-(Adamantan-1-ylaminomethyl)-phenol]	B (key: (A)=31-95%; (B)=0-30%)		V27A OOcyte Inhibition at 100 uM (%) ([1]; pH 5.5): A (key: (A)=31-95%; (B)=0-30%)
c1c(CNC23CC4CC(CC(C4)C2)C3)noc1C1CC1 [Example 107a, N-((5-cyclopropylisoxazol-3-yl)methyl)adamantan-1-amine]		A (key: (A)=31-95%; (B)=0-30%)	
c1csc(-c2ccc(CNC34CC5CC(CC(C5)C3)C4)nc2)c1 [Example 55a, Adamantan-1-yl-(5-thiophen-2-yl-pyridin-2-ylmethyl)-amine]		A (key: (A)=31-95%; (B)=0-30%)	
Cc1ccc(CNC23CC4CC(CC(C4)C2)C3)o1 [Example 67a]		A (key: (A)=31-95%; (B)=0-30%)	
COC(=O)c1ccc(-c2ccc(CNC34CC5CC(CC(O)(C5)C3)C4)cc2)cc1 [Example 190a, 4′-[(3-Hydroxy-adamantan-1-ylamino)-methyl]-biphenyl-4-carboxylic acid methyl ester]		A (key: (A)=31-95%; (B)=0-30%)	
c1cnc2[nH]c(CNC34CC5CC(CC(C5)C3)C4)nc2c1 [Example 82b, N-((3H-imidazo[4,5-b]pyridin-2-yl)methyl)adamantan-1-amine]	A (key: (A)=31-95%; (B)=0-30%)		

SMILES	S31N OOcyte Inhibition at 100 uM (%) ([2]; pH 5.5)	S31N OOcyte Inhibition at 100 uM (%) [2]	other results
c1cc(C2CC2)sc1CNC12CC3CC(CC(C3)C1)C2 [Example 108a, N-((5-cyclopropylthiophen-2-yl)methyl)adamantan-1-amine]		A (key: (A)=31-95%; (B)=0-30%)	
CC(C)n1cc(CNC23CC4CC(CC(C4)C2)C3)cn1 [Example 85a, N-((1-isopropyl-1H-pyrazol-4-yl)methyl)adamantan-1-amine]		B (key: (A)=31-95%; (B)=0-30%)	
Cc1nc(CNC23CC4CC(CC(C4)C2)C3)no1 [Example 96a, N-((5-methyl-1,2,4-oxadiazol-3-yl)methyl)adamantan-1-amine]		A (key: (A)=31-95%; (B)=0-30%)	
Cc1csc(CNC23CC4CC(CC(C4)C2)C3)n1 [Example 68b, Adamantan-1-yl-(4-methyl-thiazol-2-ylmethyl)-amine]	A (key: (A)=31-95%; (B)=0-30%)		
CC(C)c1csc(CNC23CC4CC(CC(C4)C2)C3)n1 [Example 84a, N-((4-isopropylthiazol-2-yl)methyl)adamantan-1-amine]		B (key: (A)=31-95%; (B)=0-30%)	
CC(C)c1cc(CNC23CC4CC(CC(O)(C4)C2)C3)no1 [Example 85b, (1s,3r,5R,7S)-3-(((5-isopropylisoxazol-3-yl)methyl)amino)adamantan-1-61]	A (key: (A)=31-95%; (B)=0-30%)		
c1csc(C2=NOC(CNC34CC5CC(CC(C5)C3)C4)C2)c1 (stereo not shown) [Example 168a, N-((3-(thiophen-2-yl)-4,5-dihydroisoxazol-5-yl)methyl)adamantan-1-amine]		A (key: (A)=31-95%; (B)=0-30%)	
Cc1nc(CNC23CC4CC(CC(C4)C2)C3)cs1 [Example 12b, N-((2-methylthiazol-4-yl)methyl)adamantan-1-amine]	A (key: (A)=31-95%; (B)=0-30%)		
COc1ccccc1-c1ccc(CNC23CC4CC(CC(C4)C2)C3)nc1 [Example 69b, Adamantan-1-yl-[5-(2-methoxy-phenyl)-pyridin-2-ylmethyl]-amine]	A (key: (A)=31-95%; (B)=0-30%)		
Cc1csc(-c2ccc(CNC34CC5CC(CC(C5)C3)C4)s2)c1 [Example 51b, N-((4′-Methyl-[2,2′-bithiophen]-5-yl)methyl)adamantan-1-amine]	A (key: (A)=31-95%; (B)=0-30%)		
CSc1ccccc1-c1ccc(CNC23CC4CC(CC(C4)C2)C3)cc1 [Example 66b, Adamantan-1-yl-(2′-methylsulfanyl-biphenyl-4-ylmethyl)-amine]	A (key: (A)=31-95%; (B)=0-30%)		
CSc1ccc(-c2cc(CNC34CC5CC(CC3C5)C4)no2)cc1 [Example 90b, (2R,3as,5S,6as)-N-((5-(4-(methylthio)phenyl)isoxazol-3-yl)methyl)octahydro-2,5-methanopentalen-3a-amine]	A (key: (A)=31-95%; (B)=0-30%)		
CCCc1nc(CNC23CC4CC(CC(C4)C2)C3)no1 [Example 29b, N-((5-propyl-1,2,4-oxadiazol-3-yl)methyl)adamantan-1-amine]	A (key: (A)=31-95%; (B)=0-30%)		
COc1ccc(-c2cc(CNC34CC5CC(CC(C5)C3)C4)no2)c(OC)c1 [Example 41b, N-((5-(2,4-dimethoxyphenyl)isoxazol-3-yl)methyl)adamantan-1-amine]	A (key: (A)=31-95%; (B)=0-30%)		
COc1ncc(CNC23CC4CC(CC(C4)C2)C3)cn1 [Example 55b, N-((2-methoxypyrimidin-5-yl)methyl)adamantan-1-amine]	A (key: (A)=31-95%; (B)=0-30%)		
CC(C)(C)c1nc(CNC23CC4CC(CC(C4)C2)C3)no1 [Example 103a, N-((5-(tert-butyl)-1,2,4-oxadiazol-3-yl)methyl)adamantan-1-amine]		A (key: (A)=31-95%; (B)=0-30%)	
Cc1ccc(-c2ccc(CNC34CC5CC(CC(C5)C3)C4)s2)o1 [Example 52b, N-((5-(5-Methylfuran-2-yl)thiophen-2-yl)methyl)adamantan-1-amine]	A (key: (A)=31-95%; (B)=0-30%)		
Cc1nnc(CNC23CC4CC(CC(C4)C2)C3)o1 [Example 17b, N-((5-methyl-1,3,4-oxadiazol-2-yl)methyl)adamantan-1-amine]	A (key: (A)=31-95%; (B)=0-30%)		
Clc1ccc(CNC23CC4CC(CC(C4)C2)C3)cc1 [Example 1b, N-(4-Chlorobenzyl)adamantan-1-amine]	A (key: (A)=31-95%; (B)=0-30%)		
C1CCC(c2nc(CNC34CC5CC(CC(C5)C3)C4)no2)CC1 [Example 24b]	A (key: (A)=31-95%; (B)=0-30%)		
